Experimental data as given in paper PMC3380923, “Structure Analysis of Entamoeba histolytica DNMT2 (EhMeth)” (PLoS ONE, 2012).

Biological target: T1, EhMeth (Entamoeba histolytica, UniProt Q6Q386)
T1 construct: gene meth; GST fusion from pGEX6-P3 in E. coli BL21(DE3), GST cleaved off with PreScission protease; one molecule per asymmetric unit
T1 sequence (Q6Q386 1-322): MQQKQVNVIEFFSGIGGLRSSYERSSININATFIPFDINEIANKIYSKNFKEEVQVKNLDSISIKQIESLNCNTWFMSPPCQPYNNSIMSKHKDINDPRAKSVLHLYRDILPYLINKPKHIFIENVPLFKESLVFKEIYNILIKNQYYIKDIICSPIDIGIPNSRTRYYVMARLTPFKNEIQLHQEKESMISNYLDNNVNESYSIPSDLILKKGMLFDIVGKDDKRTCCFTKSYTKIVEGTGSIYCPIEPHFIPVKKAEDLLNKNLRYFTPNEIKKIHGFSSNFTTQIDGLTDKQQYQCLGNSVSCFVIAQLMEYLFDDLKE
Experiment: X-ray crystal structure, […] Å
Conditions: co-crystallised with 150x molar excess AdoHcy, pH 6.5, 20 °C; cofactor-binding pocket

SMILES: Nc1ncnc2c1ncn2[C@@H]1O[C@H](CSCC[C@H](N)C(=O)O)[C@@H](O)[C@H]1O [AdoHcy]
- X-ray crystal structure, 2.15 Å: the crystal structure of the binary complex comprising EhMeth and AdoHcy is presented
